One assay relates to scarr formation on skin. As to the kind of experiment: Scar formation on scratches of the epidermis of a human hand, topical application. It is filed as in vivo. The following applies: topical solution, observation over 10 days. Here is the method:
To two of the scratches a solution comprising IP3 was applied topically while two of the scratches served as controls. Occular investigation was performed every day over a period of 10 days.

Assay [1] concerns the target bovine brain clathrin assembly protein-2 (AP-2). As to the kind of experiment: Binding to clathrin assembly protein-2, competition with tritiated inositoltetraphosphate. The note with it: competition with 10 nM tritiated inositoltetraphosphate, on ice, ten minutes. Here is the method: The binding assay was done in a total volume of 100 μl buffer containing […] Na HEPES pH 7.1, […], […], 5 mg/ml IgG, 10 nM tritiated inositoltetraphosphate and 1.46 μg of AP-2. […] Incubation was carried out on ice for a period of ten minutes and then the protein was co-precipitated with IgG using 5% (w/w) polyethylene glycol and pelleted by centrifugation at […] for 10 minutes. The supernatants were aspirated, the pellets were wasted with 0.2 ml water and resuspended in 0.2 ml water and transferred to scintillation vials. 5.0 ml of cyto scint fluid was added to each vial and the radioactivity was measured.

Assay [2] has as its target T1, Fibroblast growth factor acidic (aFGF) (Homo sapiens, UniProt P05230).
T1 construct: purchased Sigma (USA)
The assay is described as follows: aFGF/Matrigel-induced swelling (tumor-like matrix) in nude mice. The following applies: osmotic minipump, 0.4 g/ml, 14 days. It is filed as in vivo, BALBc nude mice. Here is the method:
Fibroblast growth factor acidic (aFGF) from Sigma (USA), was diluted in a buffer, RPMI-1640 (Life Technologies, UK). 25 μg of aFGF was diluted in 125 μl buffer and 50 μl was transferred to a small Eppendorf tube. 150 μl of Matrigel® basement membrane matrix from Becton and Dickinson (UK) was added to the tube and the content was thoroughly mixed for 60 minutes. All equipment was sterilized by irradiation or autoclaving (115° C. in 10 minutes) before use and all procedures were performed at 7° C. The mixture was kept in an icebath before the animal experiment.
Ten female, specific pathogen free BALBc nude mice with a weight of 18-22 g were maintained in autoclaved type III makrolon cages with filter tops in horizontal air flow cabinets in a barrier unit equipped with HEPA filters. Autoclaved bedding, irradiated feed and sterile filtered water was used. Temperature and humidity was kept constant at 22±2° C., 65±5 RH.
When fibroblast growth factor (FGF) and Matrigel® is mixed and inovulated to nude mice, developments of a swelling process ressembling tumor begin to develop.
A portion of the mixture of Matrigel® and a FGF was inoculated subcutaneously by a 23 G needle in the right flank of the mice. Two days before all mice were surgically prepared with osmotic minipumps (Alzet, model 2002).
To another group of five mice saline was administered as a control group.

The subject of a further assay is Wish tumour cells. As to the kind of experiment: Wish tumour cell-induced bone tumours on the calvaria of nude mice. It is filed as in vivo. The note with it: 120 mg/kg/day osmotic minipump for 14 days; individual animals. On the set-up: key: +: small and non-severe tumours; ++++: large and severe tumours. Here is the method: The injection of a specific cell-line Wish tumour cells, induces proliferation of osteoblasts on the calvaria of nude mice leading to bone tumours.
Wish cells (American Type Culture Collection^R, ATCC (R) F-12784 25 CCL WITH×01166) were used for inocculation. Cells were grown on MEM supplemented with 15% FCS, 2% glutamine and streptomycin-penicillin/garamycin. Cells were grown as a monolayer and trypsinised and split in the ratio 1:3 to 1:4. All together 360 million cells were harvested and suspended in 7 ml for a final concentration of approximately 10 million cells per 0.2 ml.
The osmotic pumps with IP3 and saline respectively were implanted on the same day as the inocculation of Wish-cells were performed.
A 27 gauge needle on a 1 ml syringe was used for the injections of Wish-cells. The injection was done under the skin of the calvaria scratching the periosteum.
At day 13 all animals were given an intraperiotoneal injection of demeclocycline (Sigma Chemicals Co. St Louis). All animals were investigated regarding the occurrence of and size of tumours. The size of tumours were measured according to a scale from
+ which represents small and non-severe tumours to
++++ which represents large and severe tumours.

For assay [3], the system named is basic fibroblast growth factor (b FGF). As to the kind of experiment: b FGF-induced bone formation on the calvaria of mice. In kind it is in vivo. On the set-up: key to Severeness of bone formation: 0: no bone formation; ++++: severe bone formation. Here is the method:
Injection of basic fibroblast growth factor (b FGF) stimulates osteoblastic activity and leads to bone formation.
The osmotic minipumps were implanted on day 1.
To the calvaria of each animal, 10 μl of b FGF (concentration 50 μg/ml) was injected four times daily of the period of day 2 to day 4.
After the experimental period of 14 days each animal was investigated macroscopically and the histological preparations were further examined by conventional routines.
Macroscopically visible bone formation was measured according to scale from
0 which represents no bone formation to
++++ which represents severe bone formation

For assay [4], the system named is heterotopic bone formation. The assay is described as follows: Rabbit heterotopic bone (HB) development model. In kind it is in vivo. Set-up: key: ++++: very marked amount of HB; +++: marked amount of HB; ++: between slight and marked amount of HB; +: slight amount of HB; 0: none amount of HB. The following applies: 1 mg/kg/hour s.c. osmotic minipump, day 42. Here is the method: Heterotopic bone formation is caused by a local growth and formation of bone. One essential component in this process is the activation of growth factors.
The right hind limb of adult rabbits (weight about 4.0 kg) was immobilized with the knee in extension by means of a plastic splint and an elastic bandage, so that the Vastus intermedius profundus (VIP) muscle was in a shortened position and the hip joint could be moved freely.
According to the standard model the rabbits were treated by removing the splint daily for 2-3 minutes for forcible and rapid manipulation of the knee.
IP3 was administered via subcutaneously operated osmotic minipumps to three rabbits. The dose level was 1 mg/kg/hour, and the time of application period was 14-21 days. The control group, another three rabbits received NaCl-solution by osmotic minipumps.
Anteposterior and lateral radiographs were made of the hind limbs of all rabbits weekly throughout the duration of the experiment which lasted 42 days.
At the end of the experiment the rabbits were killed with an overdose of Mebunat and the left and right femoral bones of each rabbit were dissected and boiled for macroscopic examination.

Assay [5] has as its system Nerve growth factors (NGFA from Vipera lebetina Venom and NGFB from Mouse Submaxillary glands). The assay is described as follows: Interaction between NGF and radioactive IP3, co-elution on Sephadex G-25 / Heparin-Sepharose columns. In kind it is binding. The note with it: co-elution from Sephadex G-25, 50 mM Hepes pH 7.4. Here is the method:
The mixture was incubated for 1 hour at 4° C.
This type of column fractionate substances according to molecular weight.
The incubate was loaded on the column and was eluted with 50 mM Hepes in fractions of 0.4 ml each.
To further determine the interaction, the fractions with radioactivity and UV-absorbance were loaded on a Heparin-Sepharose CL-6B column (Pharmacia Biotech, Sweden) (volume 25 ml, height 20 cm). […] Elution was performed with 50 mM Hepes, pH 7.4 and each fraction of 1 ml was collected for determination of radioactivity and UV absorbance. A peak with radioactivity but without UV absorption was loaded on a similar Sephadex G-25 column as described above and was eluted with the same type of buffer. Maximum radioactivity was obtained in fraction number 13 i.e. in this case the substance with radioactivity was more retained on the column.

“And” between values parts separate entries of the source, which are not always exact repeats. Equal values may be shown once.

T1 sequence (P05230 whole entry, species assumed): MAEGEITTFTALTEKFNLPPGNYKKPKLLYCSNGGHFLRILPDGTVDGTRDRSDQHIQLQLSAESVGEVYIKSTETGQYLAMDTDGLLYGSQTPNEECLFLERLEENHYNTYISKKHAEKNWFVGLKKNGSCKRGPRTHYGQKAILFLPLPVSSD

The term IC50 denotes the concentration at which inhibition is half-maximal. For `O=P(O)(O)OC1C(O)C(O)C(O)C(OP(=O)(O)O)C1OP(=O)(O)O` [IP3, D-myo-inositol-1,2,6-trisphosphate], the “scarr formation compared to the control” value with scarr formation on skin is “formed scarr in a delayed manner”. Besides, the IC50 in assay [1] worked out at 0.6 ± 0.1 µM. Also, the “volume of the formed matrix” value is listed as 150 mm^3 in assay [2] (Day 1); 125 mm^3 in assay [2] (Day 4); 90 mm^3 in assay [2] (Day 5); 50 mm^3 in assay [2] (Day 6); 50 mm^3 in assay [2] (Day 7); 70 mm^3 in assay [2] (Day 8). Moreover, in assay [2] (Day 9), the “volume of the formed matrix” value was 70 mm^3. Moreover, the Severeness of tumours entry in the assay with Wish tumour cells is recorded as “++++”. Further, in assay [3] (120 mg/kg/day for 14 days), the “histological examination of the calvaria” value is on record as “anti-angiogenic properties”. Moreover, the “Severeness of bone formation” value in assay [3] (120 mg/kg/day osmotic minipump for 14 days, individual animals) was 0. The “Amount of HB” value in assay [4] (application of IP3 14 days, individual rabbits, 1 mg/kg) is “+ and 0”; in assay [4] (application of IP3 21 days, individual rabbit), 0. Further, in assay [5], the “interaction between NGF and IP3” value is recorded as “strong interaction”.

For the origin of these results see patent publication US6632797B2, “Method of treating angiogenesis” (priority 1996, dated 2003).
